Measured values: US20120245108A1, “METHOD OF MODULATING COMPLEMENT FACTOR B (CFB) EXPRESSION IN CELLS” (KAOHSIUNG MEDICAL UNIVERSITY, priority 2011, published 2012)

How the values were obtained:
JAK/STAT signaling = conditions: Samardzija et al. 2006; cited from earlier work
phospho-STAT3(Tyr705) = test: Phospho-STAT3(Tyr705) immunoblotting in ARPE-19 cells; type: cell-based, human
Procedure: (§1) ARPE-19 (CRL-2302, human retinal pigment epithelial cells, American Type Culture Collection, Manassas, Va.) cells were cultured in 1:1 mixture of Dulbecco's modified Eagle's medium and HAM F-12 nutrient mixture supplemented with 10% fetal bovine serum at 37° C., 5% CO2, and 90% relative humidity. Confluent cells (90% confluence) were used throughout the experiments. Culture materials were obtained from Gibco-BRL (Rockville, Md.). Tannic acid, AG490 and all other reagents were obtained from Sigma Chemical Co. (St. Louis, Mo.).
(§2) The source of UVB radiation was performed using the EL series of UV lamp (UVP Inc., San Gabriel, Calif., USA). One hundred percent energy emission was at wavelength 302 nm with a radiation intensity of 1.04 mW/cm^2 in a lamp and a target distance of 15 cm was measured by a UVX Digital Radiometer (UVP Inc.).
Total cell lysates were resolved by 10% sodium dodecyl sulfate-polyacryl amide gel electrophoresis, transferred to membranes and blocked, and then probed phospho-STAT3(Tyr705) and STAT3 (Cell Signaling Technology, Danvers, Mass.) antibodies. To control for protein loading, all blots were probed with GAPDH (Millipore, Billerica, Mass.) as well. The bands were detected using the enhanced chemiluminescence system (Millipore, Billerica, Mass.).

CFB mRNA = CFB mRNA expression in ARPE-19 cells by real-time RT-PCR; type: cell-based, human; conditions: for UVB-induced CFB mRNA expression: 10 mJ/cm^2 UVB, 24 h, ARPE-19 cells, TA 25 μM, AG490 40 μM in 0.2% DMSO, normalized to GAPDH
Procedure: as §1, §2
The total RNA was isolated from ARPE-19 cells and cells exposed to UVB radiation (5-15 mJ/cm^2) for 24 hr using TRIzol Reagent (invitrogen). One μg of total RNA was subject to reverse transcriptase RT-PCR by using RT-PCR kit (Applied Biosystems). The primers used for detecting mRNA for IL-6 were 5′-CCTGCAAG ACCATCGACATG-3′ (forward, SEQ ID NO. 1) and 5′-[…]-3′ (reverse, SEQ ID NO. 2); CFB were 5′-[…]-3′ (forward, SEQ ID NO. 3) and 5′-[…]-3 (reverse, SEQ ID NO. 4); STAT3 were 5′-[…]-3′ (forward, SEQ ID NO. 5) and 5′-[…]-3′ (reverse, SEQ ID NO. 6); JAK2 were 5′-GCTCAGTGGCGGCATGAT-3′ (forward, SEQ ID NO. 7) and 5′-[…]-3′ (reverse, SEQ ID NO. 8); GAPDH were 5′-AACAGCGACACCCATCCTC-3′ (forward, SEQ ID NO. 9) and 5′-[…]-3′ (reverse, SEQ ID NO. 10). Real-time PCR was performed in a Gene Amp 7900® Sequence Detection System SDS (Applied Biosystems, Foster City, Calif., USA) using SYBR® Green PCR Master Mix Applied Biosystems. The relative gene expression is the comparative CT method. Each sample was normalized on the basis of its GAPDH content according to the formula 2^−ΔΔCT.

IL-6 = IL-6 protein production in ARPE-19 cell culture supernatants by ELISA; type: cell-based, human; conditions: TA 25 μM, 10 mJ/cm^2 UVB, 24 hours, ARPE-19 cells
Procedure: as §1, §2
ARPE-19 cells were plated about 200,000 cells in a 3-cm dish and cultured for 18-24 hours. Cells were exposed to UVB radiation for 24 hours, 1 ml aliquots of cell culture supernatants were drawn off and frozen at −80° C. ELISAs were carried out with the OptEIA human IL-6 ELISA kit (BD Pharmingen) according to the manufacturer's instructions. […] Freshly diluted rIL-6 which is useful as a standard control was used to generate a standard curve on each plate analyzed. Plates were read at 450 nm using a spectrophotometric plate reader. […]

Compound | JAK/STAT signaling (JAK/STAT signaling) | retinal degeneration after bright light exposure (JAK/STAT signaling) | STAT3 phosphorylation on Tyr705 (phospho-STAT3(Tyr705); AG490 40 μM, data not shown) | UVB-induced CFB mRNA expression (CFB mRNA) | attenuation of UVB-induced IL-6 protein production (IL-6) | UVB-induced STAT3 phosphorylation on Tyr705 (phospho-STAT3(Tyr705); TA 25 μM, UVB, 24 hours, ARPE-19 (RPE) cells) | STAT3 phosphorylation without UV radiation (phospho-STAT3(Tyr705); without UV radiation) | CFB expression without UV radiation (CFB mRNA; without UV radiation)
N#C/C(=C/c1ccc(O)c(O)c1)C(=O)NCc1ccccc1 [AG490, reference compound] | inhibit | prevent | inhibit | partly attenuated |  |  |  | 
O=C(OC[C@H]1O[C@@H](OC(=O)c2cc(O)c(O)c(OC(=O)c3cc(O)c(O)c(O)c3)c2)[C@H](OC(=O)c2cc(O)c(O)c(OC(=O)c3cc(O)c(O)c(O)c3)c2)[C@@H](OC(=O)c2cc(O)c(O)c(OC(=O)c3cc(O)c(O)c(O)c3)c2)[C@@H]1OC(=O)c1cc(O)c(O)c(OC(=O)c2cc(O)c(O)c(O)c2)c1)c1cc(O)c(O)c(OC(=O)c2cc(O)c(O)c(O)c2)c1 [TA, Tannic acid] |  |  |  | attenuate | approximately 40% | substantially attenuated | reduce | reduce
